This note sets out measurements from ChEMBL document CHEMBL5223175, “Discovery of novel 2-oximino-2-indolylacetamide derivatives as potent anticancer agents capable of inducing cell autophagy and ferroptosis” (Bioorg Med Chem, 2023).

Data set [1] concerns 5-8F. The data set can be described thus: Induction of apoptosis in human 5-8F cells assessed as upregulation of cleaved PARP expression at 10 to 30 uM incubated for 48 hrs by Western blotting analysis. It counts as functional, cell-based. As to conditions: dose 10-30 µM. A general note: A western blot detects proteins with antibodies after separation by electrophoresis.
The test system of data set [2] is 5-8F. In words: Inhibition of colony formation in human 5-8F cells at 10 to 30 uM replaced with fresh medium for every 3 days and measured for 10 to 15 days by Giemsa staining based assay. It counts as functional, cell-based. Conditions: dose 10-30 µM, time 10-15 day.
The subject of data set [3] is 5-8F. The data set can be described thus: Induction of lipid peroxidation in human 5-8F cells at 30 uM after 48 hrs by flow cytometry analysis. The data set is classed as functional, cell-based. In general terms: Flow cytometry measures light scatter and fluorescence of single cells or particles in a stream.
Data set [4] concerns 5-8F. The data set can be described thus: Induction of autophagy in human 5-8F cells assessed as increase in LC3I to LC3II conversion at 10 to 30 uM by Western blotting analysis. It counts as functional, cell-based. Conditions: dose 10-30 µM, time 48.0 hrs.
Data set [5] deals with 5-8F. In words: Induction of apoptosis in human 5-8F cells assessed as upregulation of Bax expression at 10 to 30 uM incubated for 48 hrs by Western blotting analysis. It counts as functional, cell-based. Conditions: dose 10-30 µM.
The test system of data set [6] is 5-8F. The data set can be described thus: Induction of lipid peroxidation in human 5-8F cells at 30 uM after 48 hrs by BODIPY C11 staining based fluorescence microscopy analysis. It counts as functional, cell-based.
The test system of data set [7] is 5-8F. The data set can be described thus: Induction of ferroptosis in human 5-8F cells assessed as appearance of […] at 30 uM incubated for 48 hrs by TEM analysis. It counts as functional, cell-based.
The subject of data set [8] is 5-8F. In words: Induction of ferroptosis in human 5-8F cells assessed as increase in membrane density at 30 uM incubated for 48 hrs by TEM analysis. It counts as functional, cell-based.
Data set [9] has as its system 5-8F. The data set can be described thus: Induction of apoptosis in human 5-8F cells assessed as upregulation of p53 expression at 10 to 30 uM incubated for 48 hrs by Western blotting analysis. It counts as functional, cell-based. Conditions: dose 10-30 µM.
Data set [10] deals with 5-8F. In words: Antitumor activity against human 5-8F cells xenografted in BALB/c mouse assessed as decrease in GPx4 expression at 10 to 20 mg/kg, ip administered daily. It counts as functional, organism-based. Conditions: dose 10-20 mg/kg.
Data set [11] concerns 5-8F. The data set can be described thus: Induction of apoptosis in human 5-8F cells assessed as increase in dead cells incubated for 48 hrs by microscopic analysis. The data set is classed as functional, cell-based. As to conditions: dose 10-30 µM.
Data set [12] deals with 5-8F. In words: Induction of ferroptosis in human 5-8F cells assessed as appearance of small swollen contractile punctate structures at 30 uM incubated for 48 hrs by MitoTracker Red staining based confocal microscopic analysis. It counts as functional, cell-based.
In data set [13] the test system is 5-8F. In words: Antiproliferative activity against human 5-8F cells assessed as reduction in cell viability incubated for 72 hrs by CCK-8 assay. The data set is classed as functional, cell-based.
Data set [14] concerns 5-8F. The data set can be described thus: Antitumor activity against human 5-8F cells xenografted in BALB/c mouse assessed as decrease in tumor weight at 10 to 20 mg/kg, ip administered daily. The data set is classed as functional, organism-based. As to conditions: dose 10-20 mg/kg. In general terms: Xenograft models place foreign cells or tissue in a host animal.
For data set [15], the system named is 5-8F. In words: Antiproliferative activity against human 5-8F cells assessed as decrease in cell viability at 30 uM incubated for 48 hrs in presence of Fer-1. The data set is classed as functional, cell-based.
Data set [16] concerns 5-8F. The data set can be described thus: Induction of ferroptosis in human 5-8F cells assessed as decrease in GSH level at 10 to 30 uM incubated for 48 hrs by Western blotting analysis. It counts as functional, cell-based. As to conditions: dose 10-30 µM.
Data set [17] can be described thus: Toxicity in BALB/c mouse xenografted with human 5-8F cells assessed as decrease in body weight at 10 to 20 mg/kg, ip administered daily. It counts as organism-based. Conditions: in vivo, dose 10-20 mg/kg.
A short description of data set [18]: Toxicity in BALB/c mouse xenografted with human 5-8F cells assessed as change in spleen morphology at 10 to 20 mg/kg, ip administered daily by H and E staining based assay. The data set is classed as organism-based. As to conditions: in vivo, dose 10-20 mg/kg.
Data set [19] concerns 5-8F. In words: Induction of ferroptosis in human 5-8F cells assessed as decrease in GPx4 expression at 10 to 30 uM incubated for 48 hrs by Western blotting analysis. Conditions: dose 10-30 µM. The data set is classed as functional, cell-based.
Data set [20] has as its system 5-8F. In words: Induction of apoptosis in human 5-8F cells assessed as downregulation of procaspase-3 expression at 10 to 30 uM incubated for 48 hrs by Western blotting analysis. It counts as functional, cell-based. As to conditions: dose 10-30 µM.

Structures are written as SMILES. Calls of active or inactive are those of the source. The rule behind the calls is not given here.

In general, IC50 refers to the concentration needed to halve the response being measured. Consider `Cn1cc(/C(=N\O)C(=O)Nc2ccc(Cl)cc2)c2ccccc21`, for which the outcome in the data set on 5-8F [1], in the data set on 5-8F [3], in the data set on 5-8F [4], in the data set on 5-8F [5], in the data set on 5-8F [6] and in the data set with 5-8F [7] was Active. In addition, the result in the data set with 5-8F [8], in the data set with 5-8F [9], in the data set on 5-8F [10], with 5-8F [12], with 5-8F [14] and in the data set with 5-8F [16] was Active. Besides, the result in the data set with 5-8F [19] and with 5-8F [20] was Active. Also, the inhibition entry with 5-8F [2] was “Active”. In addition, the Activity entry in the data set on 5-8F [11] was “Dose-Dependent Effect”; in data set [17], “Non-Toxic”; in data set [18] it was “Non-Toxic”. Besides, in the data set on 5-8F [13], the IC50 was 9.43 µM. Besides, the result in the data set on 5-8F [15] was inactive.
